Experimental data: patent US20110021531A1, “OXAZOLE DERIVATIVES USEFUL AS INHIBITORS OF FAAH” (priority 2009, published 2011)

Columns and labels:
[1] = target: T1, human FAAH (Fatty Acid Amide Hydrolase) (Homo sapiens, UniProt O00519); test: FAAH enzyme assay on lysate of CHO cells expressing human FAAH; assay type: biochemical
T1 construct: The full length FAAH was subcloned into the mammalian expression vector, pcDEF.neo
T1 sequence (O00519 1-579): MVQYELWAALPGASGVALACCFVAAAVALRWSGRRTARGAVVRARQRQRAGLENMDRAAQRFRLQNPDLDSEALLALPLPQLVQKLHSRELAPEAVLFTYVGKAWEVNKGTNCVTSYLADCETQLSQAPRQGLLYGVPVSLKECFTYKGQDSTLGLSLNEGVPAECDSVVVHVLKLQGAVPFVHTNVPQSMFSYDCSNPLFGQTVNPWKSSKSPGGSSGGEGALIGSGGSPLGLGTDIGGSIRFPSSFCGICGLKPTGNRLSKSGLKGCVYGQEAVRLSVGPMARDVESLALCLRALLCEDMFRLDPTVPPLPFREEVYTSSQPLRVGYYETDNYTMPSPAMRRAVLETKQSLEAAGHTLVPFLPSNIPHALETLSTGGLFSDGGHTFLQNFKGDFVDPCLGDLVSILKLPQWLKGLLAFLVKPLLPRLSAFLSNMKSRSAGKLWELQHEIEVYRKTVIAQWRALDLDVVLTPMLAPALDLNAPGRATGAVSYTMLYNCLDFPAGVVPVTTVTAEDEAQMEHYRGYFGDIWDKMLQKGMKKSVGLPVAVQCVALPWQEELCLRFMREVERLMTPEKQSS
Description: (§1) To assist in assay development stable cell lines for human, murine and rat full length FAAH were developed. Human FAAH cDNA (Accession No: NM_001441.1) was purchased from Origene (Rockville, Md.). The full length FAAH was subcloned into the mammalian expression vector, pcDEF.neo, using XbaI and EcoRI restriction sites and used for stable cell line generation.
CHO cells expressing FAAH were used to prepare either crude cell lysate or microsome fractions. To harvest cells, tissue culture media was decanted, the monolayer washed three times with Ca^++Mg^++ free PBS and cells recovered after […] in enzyme free dissociation media (Millipore Corp, Billerica, Mass.). Cells were collected by centrifuging at 2000 rpm for 15 min. and the cell pellet re-suspended with 50 mM HEPES (pH 7.4) containing 1 mM EDTA and the protease inhibitors aprotinin (1 mg/ml) and leupeptin (100 μM). The suspension was sonicated at 4° C. and the cell lysate recovered after centrifuging at 12,000×g (14,600 rpm, SS34 rotor) for 20 min at 4° C. to form a crude pellet of cell debris, nuclei, peroxisomes, lysosomes, and mitochondria; the supernatant or cell lysate was used for FAAH enzyme assay. In some cases, microsomes fractions enriched in FAAH were prepared by centrifuging the cell lysate further at 27,000 rpm (100,000×g) in SW28 rotor for 50 minutes at 4° C. The pellet containing FAAH-enriched microsomes was re-suspend in 50 mM HEPES, (pH 7.4) 1 mM EDTA, and any remaining DNA sheared by passage of material through a 23 gauge needle and aliquots of enzyme were store at −80° C. prior to use.
(§2) (American Radiolabeled Chemicals; 1 mCi/ml) with FAAH (Life Sciences (1995), 56, 1999-2005 and Journal of Pharmacology and Experimented Therapeutics (1997), 283, 729-734), Analytical. Biochemistry (2003), 318, 270-5. In addition, routine assays were performed monitoring hydrolysis of arachidonyl-7-amino-4-methylcoumarin amide (AAMCA) by following increase in fluorescence upon release of 7-amino 4-methyl coumarin (λEX=355 nm, (λEM=460 nm). Analytical. Biochemistry (2005). 343, 143-51
(§3) Assays are performed on either cell lysate or microsome fractions prepared as described or in whole cell format employing either the fluorescent substrate AAMCA (Cayman chemical, Ann Arbor, Mich.,) or ^3H-anandmaide ([ETHANOLAMINE-1-3H]American Radiolabeled Chemicals; 1 mCi/ml). The cell lysate or microsome assay is performed in Costar black wall, clear bottom plates by adding FAAH_CF10 (whole cell, cell lysate or microsome) in assay buffer (50 mM Phosphate, pH 8.0, 1 mM EDTA, 200 mM KCl, 0.2% glycerol, 0.1% fatty acid free BSA) to each well, followed by either DMSO or compound and allowed to incubate at 22-25° C. for fifteen minutes. AAMCA substrate was used to achieve a final concentration of 1 μM and reaction allowed to proceed at room temperature for 1-3 hours. Fluorescent release as a measure of FAAH activity was monitored by reading the plate in a CytoFluor Multiplate Reader (Ex: […]). Whole cell assay is conducted with cells harvested after rinsing tissue culture flasks three times with Ca^++Mg^++ free PBS, incubating for 10 min in Enzyme free dissociation media and centrifuging for 5 minutes at 1,000 rpm in table top centrifuge. Cells are resuspended in assay buffer at desired cell number in (4×10^4 cells/assay in 96-well format; 1×10^4 cells/assay in 384-well format) and assayed as described.
Alternatively, assays are performed using anandamide [ethanolamine 1-^3H] (specific activity of 10 Ci/mmol) diluted with cold anandamide to achieve a final assay concentration of 1 μM anandamide (˜50,000 cpm). Enzyme (CHO cell lysate, brain or liver homogenate) is incubated in assay buffer (50 mM Phosphate, pH 8.0, 1 mM EDTA, 200 mM KCl, 0.2% glycerol, 0.1% fatty acid free BSA) with inhibitor at 25° C. for 30 minutes. The reaction was terminated by addition of 2 volumes of chloroform:methanol (1:1) and mixed by vortexing. […]

[2] = target: T1, human FAAH (Fatty Acid Amide Hydrolase); test: FAAH whole cell assay, CHO cells expressing human FAAH; assay type: cell-based
Description: as §1
(§4) Murine (accession number NM_010173) and Rat FAAH (accession number NM_024132) was amplified by reverse transcriptase polymerase chain reaction (RT-PCR) from brain cDNA (BD Biosciences, San Jose, Calif.) using primers 1 and 2 or primers 1 and 3 respectively (see Table). The resulting PCR product was ligated into pCR4 TOPO and DNA sequence confirmed. The full length murine FAAH was subcloned into the mammalian expression vector, pcDEFneo using either EcoRI (murine) or KpnI and EcoRI (rat) restriction sites. Chinese hamster ovary cells (CHO) were transfected following manufacturers protocol (AMAXA). Forty eight hours post transfection, cells were trypsinized and transferred to 96 well plates in Iscove's DMEM media supplemented with 2 mM Glutamine, 10% fetal calf serum, 1 mg/ml geneticin and HT Supplement (0.1 mM sodium hypoxanthine, 0.016 mM thymidine) in order to isolate single clones. Following selection in geneticin, individual clones were selected and FAAH activity was assessed using a whole cell fluorescent anandamide assay, modified from Ramarao et al (2005). Following removal of tissue culture media cells were dislodged following addition of Cellstripper (Mediatech, Inc. Manassas, Va.) and transferred to 96 well black clear bottom assay plate, centrifuged at 1,000 rpm for 3 mins and media removed and replaced with assay buffer (50 mM Iris pH8.0, 1 mM EDTA, 0.1% fatty acid free BSA). The reaction was initiated by addition of fluorescent substrate, AMC Arachidonoyl Amide (Cayman Chemical, Ann Arbor, Mich.) to 1 μM and reaction allowed to proceed for 2 hours at room temperature. Release of fluorescence was monitored in a CytoFluor Multiplate Reader. Cells expressing the highest amount of FAAH activity were selected for study with FAAH inhibitors.
as §2, §3

[3] = target: T2, rat FAAH (Fatty Acid Amide Hydrolase) (Rattus norvegicus, UniProt P97612); test: FAAH whole cell assay, CHO cells expressing rat FAAH; assay type: cell-based
T2 sequence (P97612 1-579): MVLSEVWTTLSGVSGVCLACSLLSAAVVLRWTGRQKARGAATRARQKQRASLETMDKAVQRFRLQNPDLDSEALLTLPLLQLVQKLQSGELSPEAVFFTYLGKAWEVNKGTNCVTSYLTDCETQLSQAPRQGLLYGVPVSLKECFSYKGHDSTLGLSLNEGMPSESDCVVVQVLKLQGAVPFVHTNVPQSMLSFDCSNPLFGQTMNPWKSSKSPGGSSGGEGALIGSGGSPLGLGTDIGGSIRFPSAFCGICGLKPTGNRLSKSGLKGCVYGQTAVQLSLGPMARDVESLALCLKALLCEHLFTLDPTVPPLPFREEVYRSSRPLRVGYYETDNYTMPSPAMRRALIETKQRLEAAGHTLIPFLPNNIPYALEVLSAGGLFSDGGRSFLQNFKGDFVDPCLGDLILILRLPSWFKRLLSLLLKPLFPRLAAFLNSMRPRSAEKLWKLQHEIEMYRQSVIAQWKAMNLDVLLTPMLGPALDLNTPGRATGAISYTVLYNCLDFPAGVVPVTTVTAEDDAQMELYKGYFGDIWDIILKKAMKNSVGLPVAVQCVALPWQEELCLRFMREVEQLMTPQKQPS
Description: as §1, §4, §2, §3

Row | Compound | IC50 [1] [nM] | IC50 [2] [nM] | IC50 [3] [nM]
1 | CC(C)(O)c1ccc(-c2nc(-c3cncc(Cl)c3)oc2Sc2ccc(Cl)cn2)cn1 [Ex 119, 2-(5-{2-(5-Chloropyridin-3-yl)-5-[(5-chloropyridin-2-yl)sulfanyl]-1,3-oxazol-4-yl}pyridin-2-yl)propan-2-ol] | 28 | 47 | 20
2 | CC(C)(O)c1ccc(-c2nc(-c3ccccn3)oc2Sc2ncc(Cl)cn2)cn1 [Ex 131] | 140 | 1120 | 782
3 | CC(C)(O)c1ccc(-c2nc(-c3cc(F)c(F)cc3F)oc2Sc2ccc(Cl)cn2)cn1 [Ex 58] | 37 | 112 | 74
4 | Cc1cc(F)ccc1-c1nc(-c2ccc(C(C)(C)O)nc2)c(Sc2ccc(Cl)cn2)o1 [Ex 37] | 13 | 40 | 15
5 | CC(C)(O)c1ccc(-c2nc(-c3ccc(F)cc3)oc2Sc2ccc(Cl)cn2)nn1 [Ex 96, 2-(6-{5-[(5-Chloropyridin-2-yl)sulfanyl]-2-(4-fluorophenyl)-1,3-oxazol-4-yl}pyridazin-3-yl)propan-2-ol] | 17 | 133 | 63
6 | Fc1ccc(-c2nc(-c3ccc(-c4ncon4)cc3)c(Sc3ccc(Cl)cc3)o2)cc1 [Ex 48, 3-{4-[5-[(4-Chlorophenyl)thio]-2-(4-fluorophenyl)-1,3-oxazol-4-yl]phenyl}-1,2,4-oxadiazole] | 9 | 77 | 8
7 | CC(C)(O)c1ccc(-c2nc(-c3ccccn3)oc2Sc2ccc(F)cn2)cn1 [Ex 125] | 93 | 2290 | 680
8 | CC(C)(O)c1csc(-c2nc(-c3ccc(F)cc3)oc2Sc2ccc(Cl)cn2)n1 [Ex 100, 2-(2-{5-[(5-Chloropyridin-2-yl)sulfanyl]-2-(4-fluorophenyl)-1,3-oxazol-4-yl}-1,3-thiazol-4-yl)propan-2-ol] | 161 | 337 | 39
9 | CS(=O)(=O)c1ccc(-c2nc(-c3ccc(F)cc3)oc2Sc2ccc(Cl)cn2)cc1 [Ex 78, 5-Chloro-2-({2-(4-fluorophenyl)-4-[4-(methylsulfonyl)phenyl]-1,3-oxazol-5-yl}sulfanyl)pyridine] | 28 | 69 | 39
10 | CC(C)(O)c1ccc(-c2nc(-c3ccc(F)cc3)oc2Sc2ccc(Cl)cn2)cc1 [Ex 80, 2-(4-{5-[(5-Chloropyridin-2-yl)sulfanyl]-2-(4-fluorophenyl)-1,3-oxazol-4-yl}phenyl)propan-2-ol] | 35 | 67 | 25
11 | N#CC1(c2ccc(-c3nc(-c4ccc(F)cc4)oc3Sc3ccc(Cl)cn3)cn2)CC(O)C1 (stereo not drawn) [Ex 122, 1-(5-{5-[(5-Chloropyridin-2-yl)sulfanyl]-2-(4-fluorophenyl)-1,3-oxazol-4-yl}pyridin-2-yl)-3-hydroxycyclobutanecarbonitrile] | 161 | 474 | 146
12 | CC(C)(O)c1ccc(-c2nc(-c3ccccc3)oc2Sc2ncc(Cl)cn2)cn1 [Ex 62] | 23 | 41 | 29
13 | CC(C)(O)c1ccc(-c2nc(-c3ccc(OC(F)(F)F)cc3)oc2Sc2ccc(Cl)cn2)cn1 [Ex 68] | 15 | 100 | 83
14 | CC(C)(O)c1ccc(-c2nc(-c3ccc(F)cc3)oc2Sc2ccc(F)cn2)cn1 [Ex 19] | 38 | 78 | 18
15 | CS(=O)(=O)c1ccc(-c2nc(-c3ccc(F)cc3)oc2Sc2ccc(Cl)cn2)cn1 [Ex 102, 5-Chloro-2-({2-(4-fluorophenyl)-4-[6-(methylsulfonyl)pyridin-3-yl]-1,3-oxazol-5-yl}sulfanyl)pyridine] | 12 | 35 | 17
16 | CC(C)(O)c1ccc(-c2nc(C3CC3)oc2Sc2ccc(Cl)cn2)cn1 [Ex 90, 2-(5-{5-[(5-Chloropyridin-2-yl)sulfanyl]-2-cyclopropyl-1,3-oxazol-4-yl}pyridin-2-yl)propan-2-ol] | 46 | 1000 | 247
